The results in this text go back to US12116343B2, “Inhibitors of APOL1 and methods of using same” (Vertex Pharmaceuticals Incorporated, priority 2020, dated 2024).

In this test the target is T1, APOL1 G1 Protein (Homo sapiens, UniProt O14791, I384M/S342G).
T1 sequence (O14791 28-398 S342G/I384M): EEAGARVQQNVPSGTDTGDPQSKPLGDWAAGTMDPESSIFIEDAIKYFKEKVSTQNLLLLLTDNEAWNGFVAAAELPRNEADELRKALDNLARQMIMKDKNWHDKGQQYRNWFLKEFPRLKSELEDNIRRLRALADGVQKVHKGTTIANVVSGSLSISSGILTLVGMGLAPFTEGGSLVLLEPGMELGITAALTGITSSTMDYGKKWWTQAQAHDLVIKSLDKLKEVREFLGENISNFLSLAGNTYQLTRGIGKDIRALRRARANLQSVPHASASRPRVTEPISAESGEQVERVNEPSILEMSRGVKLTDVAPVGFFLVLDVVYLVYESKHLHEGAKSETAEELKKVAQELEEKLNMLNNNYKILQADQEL
Kind of test: Trypanosoma brucei brucei lysis assay using APOL1 recombinant protein (AlamarBlue viability). Format: cell-based. The note with it: Trypanosoma brucei brucei lysis, recombinant APOL1, AlamarBlue; read-out: Trypanosoma Assay (IC50). In short, it runs like this:
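Bloodstream-form T. b. brucei Lister 427 VSG 221, 120,000 parasites/well in phenol red-free, FBS-free medium, lysed by recombinant APOL1 G1 with compound (10-point dose response, 0.1% DMSO final). Viability read by AlamarBlue fluorescence against a parasite standard curve.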
Background: The colour change of resazurin is a common sign of viable cells or microbes.

Consider `CS(=O)(=O)CCNC(=O)[C@H]1C[C@H](c2c(-c3ccc(F)cc3)[nH]c3c(F)cc(F)cc32)C1` [Compound 40], for which the IC50 is over 1000 nM.
The value for `O=C(NC1CCOC1)[C@H]1C[C@H](c2c(-c3ccc(F)cc3)[nH]c3c(F)cc(F)cc32)C1` (stereo partly drawn) [Compound 15] was 250 to 1000 nM; that for `CN(C(=O)[C@H]1C[C@H](c2c(-c3ccc(F)cc3)[nH]c3c(F)cc(F)cc32)C1)C1COCC1O` (stereo partly drawn) [Compound 205] was over 1000 nM.
Turning to `COC[C@@H]1CCN1C(=O)[C@H]1C[C@H](c2c(-c3ccc(F)cc3)[nH]c3c(F)cc(F)cc32)C1` [Compound 222], the IC50 is under 250 nM.
With `O=C(NC[C@H](O)C(F)(F)F)[C@H]1C[C@H](c2c(-c3ccc(F)cc3)[nH]c3c(F)cc(F)cc32)C1` [Compound 176], the IC50 is under 250 nM.
As to `CC1(CO)CCN1C(=O)[C@H]1C[C@H](c2c(-c3ccc(F)cc3)[nH]c3c(F)cc(F)cc32)C1` (mixture of isomers) [Compound 218], the IC50 was under 250 nM.
The value for `C#CC(CO)NC(=O)[C@H]1C[C@H](c2c(-c3ccc(F)cc3)[nH]c3c(F)cc(F)cc32)C1` (stereo partly drawn) [Compound 196] was under 250 nM.
With `C[C@H](O)[C@@H](CO)NC(=O)[C@H]1C[C@H](c2c(-c3ccc(F)cc3)[nH]c3c(F)cc(F)cc32)C1` [Compound 16], the IC50 is under 250 nM.
As for `O=C([C@H]1C[C@H](c2c(-c3ccc(F)cc3)[nH]c3c(F)cc(F)cc32)C1)N1CCC[C@@H]1CO` [Compound 192], the IC50 is under 250 nM.
`O=C(NC1(CO)CC(F)(F)C1)[C@H]1C[C@H](c2c(-c3ccc(F)cc3)[nH]c3c(F)cc(F)cc32)C1` [Compound 202]: the IC50 was under 250 nM.
The same measure for `O=C(NCCn1cccc1)[C@H]1C[C@H](c2c(-c3ccc(F)cc3)[nH]c3c(F)cc(F)cc32)C1` [Compound 34]: 250 to 1000 nM.
On to `NC(=O)C1CC(c2c(-c3ccc(F)cc3)[nH]c3c(F)cc(F)cc23)C1` (stereo not drawn) [Compound 278, 3-[5,7-difluoro-2-(4-fluorophenyl)-1H-indol-3-yl]cyclobutanecarboxamide], for which the 50% inhibitory concentration (IC50) was 250 to 1000 nM.
Turning to `C[C@@H](O)CNC(=O)[C@H]1C[C@H](c2c(-c3ccc(F)cc3)[nH]c3c(F)cc(F)cc32)C1` [Compound 175], the IC50 was in the range of 250 to 1000 nM.
In the case of `O=C(NCc1nnco1)[C@H]1C[C@H](c2c(-c3ccc(F)cc3)[nH]c3c(F)cc(F)cc32)C1` [Compound 171], the IC50 was under 250 nM.
Consider `COCCNC(=O)[C@H]1C[C@H](c2c(-c3ccc(F)cc3)[nH]c3c(F)cc(F)cc32)C1` [Compound 12], for which the IC50 lay in the range of 250 to 1000 nM.
The value for `O=C([C@H]1C[C@H](c2c(-c3ccc(F)cc3)[nH]c3c(F)cc(F)cc32)C1)N1CCC[C@H]1CO` [Compound 210] was 250 to 1000 nM; that for `Cn1cncc1CNC(=O)[C@H]1C[C@H](c2c(-c3ccc(F)cc3)[nH]c3c(F)cc(F)cc32)C1` [Compound 174] was 250 to 1000 nM; that for `O=C(N[C@H]1C[C@H](O)C1)[C@H]1C[C@H](c2c(-c3ccc(F)cc3)[nH]c3c(F)cc(F)cc32)C1` [Compound 20] was 250 to 1000 nM.
Turning to `O=C(N[C@@H]1CCC[C@H]1O)[C@H]1C[C@H](c2c(-c3ccc(F)cc3)[nH]c3c(F)cc(F)cc32)C1` [Compound 182], the IC50 is over 1000 nM.
Regarding `Cc1cc(NC(=O)[C@H]2C[C@H](c3c(-c4ccc(F)cc4)[nH]c4c(F)cc(F)cc43)C2)no1` [Compound 17], the IC50 lay within 250 to 1000 nM.
`O=C(NCCn1cnnc1)[C@H]1C[C@H](c2c(-c3ccc(F)cc3)[nH]c3c(F)cc(F)cc32)C1` [Compound 39]: the IC50 is over 1000 nM.
In the case of `O=C(NCC1(O)CC1)[C@H]1C[C@H](c2c(-c3ccc(F)cc3)[nH]c3c(F)cc(F)cc32)C1` [Compound 183], the IC50 is 250 to 1000 nM.
On to `CC(C)CC(NC(=O)[C@H]1C[C@H](c2c(-c3ccc(F)cc3)[nH]c3c(F)cc(F)cc32)C1)C(N)=O` (stereo partly drawn) [Compound 30], for which the IC50 was over 1000 nM.
For the compound `O=C(NCC1(O)COC1)[C@H]1C[C@H](c2c(-c3ccc(F)cc3)[nH]c3c(F)cc(F)cc32)C1` [Compound 185], the 50% inhibitory concentration (IC50) was 250 to 1000 nM.
As to `O=C(N[C@H]1CC[C@H]1O)[C@H]1C[C@H](c2c(-c3ccc(F)cc3)[nH]c3c(F)cc(F)cc32)C1` [Compound 181], the 50% inhibitory concentration (IC50) lay within 250 to 1000 nM.
With `Cc1nnc(CNC(=O)[C@H]2C[C@H](c3c(-c4ccc(F)cc4)[nH]c4c(F)cc(F)cc43)C2)o1` [Compound 172], the IC50 was under 250 nM.
Regarding `CC(C)(CO)NC(=O)[C@H]1C[C@H](c2c(-c3ccc(F)cc3)[nH]c3c(F)cc(F)cc32)C1` [Compound 31], the IC50 is 250 to 1000 nM.
For `Cn1ncc(CNC(=O)[C@H]2C[C@H](c3c(-c4ccc(F)cc4)[nH]c4c(F)cc(F)cc43)C2)n1` [Compound 198], the IC50 is under 250 nM.
For the compound `O=C(NCC(F)(F)F)[C@H]1C[C@H](c2c(-c3ccc(F)cc3)[nH]c3c(F)cc(F)cc32)C1` [Compound 33], the IC50 was over 1000 nM.
`Cc1ccn(CCNC(=O)[C@H]2C[C@H](c3c(-c4ccc(F)cc4)[nH]c4c(F)cc(F)cc43)C2)n1` [Compound 35]: the IC50 lay in the range of 250 to 1000 nM.
Take `O=C1NCCC1CNC(=O)[C@H]1C[C@H](c2c(-c3ccc(F)cc3)[nH]c3c(F)cc(F)cc32)C1` (stereo partly drawn) [Compound 208]: the 50% inhibitory concentration (IC50) is over 1000 nM.
The same measure for `COC1CC1NC(=O)[C@H]1C[C@H](c2c(-c3ccc(F)cc3)[nH]c3c(F)cc(F)cc32)C1` (stereo partly drawn) [Compound 18]: over 1000 nM; for `COC[C@@H]1CCN1C(=O)[C@H]1C[C@H](c2c(-c3ccc(F)cc3)[nH]c3c(F)cc(F)cc32)C1` [Compound 220]: 250 to 1000 nM.
For the compound `O=C([C@H]1C[C@H](c2c(-c3ccc(F)cc3)[nH]c3c(F)cc(F)cc32)C1)N1CCOC[C@@H]1CO` [Compound 219], the IC50 was under 250 nM.
The same measure for `CC(C)(O)C(O)CNC(=O)[C@H]1C[C@H](c2c(-c3ccc(F)cc3)[nH]c3c(F)cc(F)cc32)C1` (stereo partly drawn) [Compound 215]: over 1000 nM.
The same measure for `O=C(NCC(O)CO)[C@H]1C[C@H](c2c(-c3ccc(F)cc3)[nH]c3c(F)cc(F)cc32)C1` (stereo partly drawn) [Compound 14]: 250 to 1000 nM.
In the case of `O=C(N[C@@H]1CCC[C@@H]1O)[C@H]1C[C@H](c2c(-c3ccc(F)cc3)[nH]c3c(F)cc(F)cc32)C1` [Compound 179], the IC50 lay in the range of 250 to 1000 nM.
With `O=C1NCCCC1NC(=O)[C@H]1C[C@H](c2c(-c3ccc(F)cc3)[nH]c3c(F)cc(F)cc32)C1` (stereo partly drawn) [Compound 23], the IC50 was in the range of 250 to 1000 nM.
For `O=C(N[C@H]1CC[C@@H]1O)[C@H]1C[C@H](c2c(-c3ccc(F)cc3)[nH]c3c(F)cc(F)cc32)C1` [Compound 178], the IC50 lay within 250 to 1000 nM.

Broadly, the IC50 is the concentration at which inhibition is half-maximal.
